Data taken from patent US20190119282A1, “IMIDAZOPYRIDAZINES USEFUL AS INHIBITORS OF THE PAR-2 SIGNALING PATHWAY” (Vertex Pharmaceuticals Incorporated, priority 2013, published 2019).
Marks after values point to notes of the source that are not given here.

Tests used:
[1] = In vivo rat pharmacokinetics (intravenous and oral); details: plasma
In short: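 Rats dosed by tail-vein bolus at 0.5–1 mg/kg in NMP-based solutions, or by oral gavage at 1–600 mg/kg as solution, suspension or spray-dried dispersion. Jugular blood in K3EDTA gave plasma or citrate-diluted whole blood; LC-MS/MS quantification, non-compartmental PK analysis.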

[2] = test system: carrageenan-induced paw edema; assay: Rat carrageenan-induced paw edema model; assay type: in vivo, Sprague Dawley rats; details: for % inhibition of carrageenan induced paw edema: given before carrageenan challenge; for % inhibition of an established carrageenan induced rat paw edema: given 2 hours post carrageenan challenge
In short: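 Rats received intraplantar 1% carrageenan (100 ul) under isoflurane. Test compound in 0.5% MC/0.1% SDS was given systemically at 5 mL/kg either 1-3 h before or 2 h after the challenge. Paw swelling was measured by plethysmometer at 2-6 h and expressed as mean % effect.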

Work on `Cc1nc(C(=O)N2CCN(C(=O)c3cn4nc(-c5ccc(F)cc5)cc(C(C)(C)C)c4n3)C(C)(C)C2)n[nH]1` [Compound I-343, (8-(tert-butyl)-6-(4-fluorophenyl)imidazo[1,2-b]pyridazin-2-yl)(2,2-dimethyl-4-(5-methyl-1H-1,2,4-triazole-3-carbonyl)piperazin-1-yl)methanone] yielded a clearance ([1]; intravenous 0.5 to 1 mg/kg, read-out: Clp) of 3.39 mL/min/kg, a Vd ([1]; intravenous, read-out: Vss) of 1.65 L/kg and a bioavailability ([1]; oral by gavage) of 62%. The half-life ([1]; read-out: T ½ (converted)) was 7.03 h, the “% inhibition of carrageenan induced paw edema” value ([2]; dose 0.3 mg/kg) was 19* % and the “% inhibition of an established carrageenan induced rat paw edema” value ([2]; dose 3 mg/kg) was 32** %. For the same molecule, the “% inhibition of carrageenan induced paw edema” value ([2]; dose 3 mg/kg) was 28* %, the “% inhibition of an established carrageenan induced rat paw edema” value ([2]; dose 10 mg/kg) was 49** % and the “% inhibition of carrageenan induced paw edema” value ([2]; dose 10 mg/kg) was 34* %. For the same molecule, the “% inhibition of an established carrageenan induced rat paw edema” value ([2]; dose 30 mg/kg) was 58** %, the “% inhibition of carrageenan induced paw edema” value ([2]; dose 30 mg/kg) was 50*** % and the “% inhibition of an established carrageenan induced rat paw edema” value ([2]; dose 60 mg/kg) was 70*** %.
